Measurements as given in article PMC11468294, “Peptide Amphiphiles as Biodegradable Adjuvants for Efficient Retroviral Gene Delivery” (Advanced Healthcare Materials, 2023).
“Also recorded” adds a separate entry of the source. Where a SMILES comes first, the peptide text is derived from it. The star is where a group is joined. X2 = CC/C=C\C/C=C\C/C=C\C/C=C\C/C=C\CCCC(=O)*; X1 = CC/C=C\C/C=C\C/C=C\CCCCCCCC(=O)*; Fmoc = O=C(OCC1c2ccccc2-c2ccccc21)*; Palmitoyl = CCCCCCCCCCCCCCCC(=O)*; Lauroyl = CCCCCCCCCCCC(=O)*

Columns and labels:
[1] = test system: HIV-1 infection of TZM-bl cells; experiment: HIV-1 infection assay (β-galactosidase luminescence reporter); format: cell-based
Procedure: HIV‐1 Infection Assay: The effect of peptide fibrils on HIV‐1 infection was studied via a luminescence assay for β‐galactosidase, which was reported by TZM‐bl cells upon infection. 10000 TZM‐bl cells were seeded in 180 µl supplemented DMEM one day prior infection. The cells were inoculated with 20 µl PNF solution 1:1 (v/v) mixed with virus (1:500 dilution) after an incubation time of 10 min. The HIV‐1 infection assay was conducted in three technical replicates and repeated in three independent experiments unless stated otherwise. The assay was conducted as described before.^[ [20] ^]

[2] = Zeta-potential measurement; format: physicochemical; settings: 1 mg mL-1 in PBS, diluted in 1 mM KCl
Procedure: Zeta‐potential: 60 µL of the peptides (1 mg mL^−1) were diluted in 600 µL, 1 mM KCl solution and placed in a disposable folded capillary cuvette. All zeta‐potential measurements (Zetasizer, Malvern Instruments) were conducted in triplicates for each sample.

[3] = TEM morphology of peptide assemblies; format: physicochemical; settings: diluted from DMSO stock (10 mg mL-1) to 1 mg mL-1 in PBS, incubated 1 d at rt
Procedure: (§1) Transmission electron microscopy (TEM) measurements, Thioflavin (ThT), zeta‐potential measurements for fibril characterization, ATR‐IR spectra acquisition and the calculation of β−sheet were prepared and conducted analogous to a previous report.^[ [20], [86] ^] […] Fibrils were defined as distinct, if no visible structures could be identified in fluorescence and brightfield microscopy. […] The derived count rate of the zeta‐potential measurement was used as information on the light scattering intensity and turbidity of the sample as a further indicator for microscopic aggregation.^[ [90] ^]
TEM: 5 µL of fibrils (1 mg mL^−1) were placed on 300 mesh, Formvar layered copper grids. After 10 min incubation time, the grids were staining with 4% uranyl acetate solution for 2.5 min. After
three washing steps with dd H2O excess solvent was removed by filter paper. Measurements
were performed on a Jeol 1400 electron microscope with 120 kV acceleration voltage.

[4] = Microscopic aggregation (fluorescence / confocal microscopy, derived count rate); format: physicochemical; settings: fibrils preformed at 1 mg mL-1 in PBS; ThT or Proteostat stain, widefield or confocal microscopy; derived count rate > 1000 kcps as criterion
Procedure: as §1
Fluorescence microscopy: 1 µL Fibrils (1 mg mL^−1) were stained with 9 µL, 50 µM ThT. 10 µL of the stained fibrils (0.1 mg mL^−1) were placed on a microscopy glass. Fluorescence microscopy measurements were performed on a Leica DMi8 microscope with 10x air objective and equipped with a Leica MC170 HD camera with a filter setting λem = 527/30 nm upon excitation at λex = 480/40 nm) and processed with the Leica LASX software.
(§2) 7 Effects of PA modifications on properties and activity
(§3) To investigate the effects of modification in the PA sequence, we created various peptide amphiphiles derived from PA1 by varying the (I) hydrophobic moiety, (II) the linkage chemistry and (III) the peptide sequence (Figure S12, SI chapter 7.1 – 7.3). The color code for sequence representation is yellow for the hydrophobic moiety, blue for cationic amino acids, red for non-polar amino acids, purple for polar uncharged amino acids, and green for anionic amino acids. To be concise, only the summarized information will be discussed, all original data for the peptides are summarized in the (Figure S26 - […]
(§4) Figure S12 Summarized overview of peptide amphiphile library in which systematic variations the original sequence […]
(§5) chemistry and (III) the peptide sequence on infectivity enhancement and degradability (see SI chapter 7.1 – 7.3).
(§6) In the following section a compound is considered infectivity enhancing if n-fold infectivity at 1.3 µM is larger than 2. A compound is considered to form µm-sized aggregates if visible particles were observed in widefield microscopy (brightfield or ThT-staining filter, objective 10x) or confocal […]
(§7) than 1000 kcps in Zeta-Potential measurements.
(§8) For the degradability only the PAs which could be stained with Proteostat (Figure S26) and were visible in microscopy (Figure S15, Figure S18, Figure S21, and Figure S22) were studied in detail. To determine […]
whether a PA is degraded or not, Proteostat stained PAs which are added to Hela cells (2 µg peptide added to 20.000 cells) and studied via confocal laser scanning microscopy. […]
In the following, we will distinguish between three aggregation types for fibrillar structures: Fibrils which were not aggregating (below resolution limit of the microscope, approx. 650 nm), moderately aggregating (< 50 µm2) and aggregating to large particles (> 50 µm 2).
7.1 Effects of hydrophobic moiety exchange on properties and activity
To investigate the effects of varying hydrophobic moieties on assembly, aggregation and activity , we

HeLa cells = format: in vitro ADME; settings: for degradability by cells (in words): HeLa cells, 2 µg peptide added to 20,000 cells, d0 (30 min) vs d3, degradable if number and size of aggregates are reduced after 3 days
Procedure: Confocal laser scanning microscopy and degradation study with PA library and HeLa cells: Confocal laser scanning microscopy studies were performed for the visualization of the cell‐PA interaction. HeLa cells were seeded one day prior to conducting the assay (20000/well) in an 8‐well IBIDI slide. 2 µL of the preformed peptide fibrils (1 mg mL^−1) were diluted with 2 µL Proteostat (Enzo Life Science, 1 µL stock in 99 µL PBS) and incubated for 10 min and further diluted with medium to receive a final peptide concentration of 10 µg mL^−1. The nucleus of the HeLa cells was stained with Hoechst 33 342 (NucBlue, Thermo Fisher Scientific). The peptide solution mixture was transferred to the HeLa cells and incubated for 30 min at 37°C before washing three times with PBS. The interaction of fibril clusters with cells was monitored after 30 min incubation time on a Stellaris 8 confocal laser scanning microscope (Leica) equipped with a 20x air objective and laser excitation wavelengths of 405 nm (Hoechst), and 561 nm (Proteostat). For the evaluation of aggregate degradation, the samples were further incubated at 37°C for 3 d and analyzed without any additional washing step. The evaluation of aggregate size and number was conducted by analyzing Proteostat stained aggregates via the 3D objects counter function of ImageJ 1.53f51 for 3 individual measurements (area 1008 µm × 1008 µm). […] The number of aggregates were determined by counting aggregates larger than the threshold 10 µm^2 in an area of 1008 µm × 1008 µm and repeated in three technical triplicates.
as §2, §3, §4, §5, §6, §7, §8
whether a PA is degraded or not, Proteostat stained PAs which are added to Hela cells (2 µg peptide added to 20.000 cells) and studied via confocal laser scanning microscopy. Microscopy is conducted at day 0 (d0, after 30 min of incubation) and at day 3 (d3, after 72 h of incubation). The number of aggregates >10 µm2 is counted via 3D object counter in ImageJ in an area of 1008 µm × 1008 µm.
A PA is considered as degradable if the number and the size of aggregates are reduced after 3 days.
The efficiency is determined by the percentual degradation (aggregate number at d3 / aggregate number at d0). Three technical replicates were evaluated for each sample. A large deviation in number and size of aggregates represents a nonhomogeneous distribution and polymorphism of aggregates.

[5] = infectivity enhancing if n-fold at 1.3 µM larger than 2

Q: With `CC/C=C\C/C=C\C/C=C\CCCCCCCC(=O)N[C@H](C(=O)N[C@H](C(=O)N[C@H](C(=O)N[C@@H](C)C(=O)N[C@@H](C)C(=O)N[C@@H](C)C(=O)N[C@@H](CCCCN)C(=O)N[C@@H](CCCCN)C(=O)N[C@@H](CCCCN)C(N)=O)C(C)C)C(C)C)C(C)C` (X1-VVVAAAKKK-NH2) as the compound, how does the “infectivity enhancement of HIV-1 (in words)” value [1, 5] read?
A: Inactive

Q: What about the “infectivity enhancement of HIV-1 (in words)” value ([1]; infectivity enhancing if n-fold at 1.3 µM larger than 2, listed as alpha linolenic acid) of the same compound?
A: not able to maintain activity

Q: And the “zeta-potential (in words)” value [2]?
A: neutral zeta-potential

Q: And the “morphology of peptide assemblies / fibril formation (TEM)” value [3]?
A: cannot self‐assemble into fibrils

Q: And the “morphology of peptide assemblies / fibril formation (TEM)” value ([3]; listed as alpha linolenic acid)?
A: neither forming fibrils, nor it is aggregating or active

Q: And the “formation of µm-sized aggregates (in words)” value (from here on “formation … (in words)”) [4]?
A: do not aggregate

Q: What does the source list for `CCCCCCCCCCCCCCCC(=O)N[C@@H](Cc1c[nH]c2ccccc12)C(=O)N[C@@H](CCC(=O)O)C(=O)N[C@@H](C)C(=O)N[C@@H](CC(C)C)C(=O)N[C@@H](CCCCN)C(=O)N[C@@H](CCCCN)C(N)=O` [C16-WEALKK-NH2] (Palmitoyl-WEALKK-NH2)?
A: infectivity enhancement of HIV-1 (in words) [1, 5]: Inactive; morphology of peptide assemblies / fibril formation (TEM) [3]: not forming fibrils; also recorded: cannot self‐assemble into fibrils; formation of µm-sized aggregates (in words) [4]: not forming µm-sized aggregates and forming too few/less aggregates, respectively

Q: With `CCCCCCCCCCCCCCCC(=O)N[C@@H](C)C(=O)NCC(=O)N[C@@H](C)C(=O)NCC(=O)N[C@@H](CCCNC(=N)N)C(=O)N[C@@H](CCCNC(=N)N)C(=O)N[C@@H](CCCNC(=N)N)C(N)=O` [C16-AGAGRRR-NH2] (Palmitoyl-AGAGRRR-NH2) as the compound, how does the “infectivity enhancement of HIV-1 (in words)” value [1, 5] read?
A: Inactive

Q: What about the “formation … (in words)” value [4] of the same compound?
A: not forming µm-sized aggregates and forming too few/less aggregates, respectively; also recorded: cannot form µm‐sized aggregates

Q: For `CC/C=C\C/C=C\C/C=C\C/C=C\C/C=C\CCCC(=O)N[C@H](C(=O)N[C@H](C(=O)N[C@H](C(=O)N[C@@H](C)C(=O)N[C@@H](C)C(=O)N[C@@H](C)C(=O)N[C@@H](CCCCN)C(=O)N[C@@H](CCCCN)C(=O)N[C@@H](CCCCN)C(N)=O)C(C)C)C(C)C)C(C)C` (X2-VVVAAAKKK-NH2), which “degradability by cells (in words)” value (HeLa cells) is on record?
A: degradable PA

Q: And the “average size of aggregates” value (HeLa cells; Proteostat-stained PA with HeLa cells, confocal aggregate analysis)?
A: 6-7 µm2

Q: And the “morphology of peptide assemblies / fibril formation (TEM)” value [3]?
A: structures composed of fibrillar structures

Q: Which “infectivity enhancement of HIV-1 (in words)” value [1, 5] does the source give for `CCCCCCCCCCCC(=O)N[C@H](C(=O)N[C@H](C(=O)N[C@H](C(=O)N[C@@H](C)C(=O)N[C@@H](C)C(=O)N[C@@H](C)C(=O)N[C@@H](CCCCN)C(=O)N[C@@H](CCCCN)C(=O)N[C@@H](CCCCN)C(N)=O)C(C)C)C(C)C)C(C)C` [C12] (Lauroyl-VVVAAAKKK-NH2) here?
A: efficient infectivity enhancement

Q: And the “degradability by cells (in words)” value (HeLa cells)?
A: partially degraded

Q: And the “formation … (in words)” value [4]?
A: large aggregate formation

Q: With `CCCCCCCCCCCCCCCC(=O)NCC(=O)NCC(=O)NCC(=O)N[C@@H](CO)C(=O)N[C@@H](CO)C(=O)N[C@@H](CCCCN)C(=O)N[C@@H](CCCCN)C(=O)N[C@@H](CCCCN)C(N)=O` (Palmitoyl-GGGSSKKK-NH2) as the compound, how does the “infectivity enhancement of HIV-1 (in words)” value [1, 5] read?
A: Inactive

Q: And the “formation … (in words)” value [4]?
A: not forming µm-sized aggregates and forming too few/less aggregates, respectively; also recorded: cannot form µm‐sized aggregates

Q: What does the source list for `CC(C)[C@H](NC(=O)OCC1c2ccccc2-c2ccccc21)C(=O)N[C@H](C(=O)N[C@H](C(=O)N[C@@H](C)C(=O)N[C@@H](C)C(=O)N[C@@H](C)C(=O)N[C@@H](CCCCN)C(=O)N[C@@H](CCCCN)C(=O)N[C@@H](CCCCN)C(N)=O)C(C)C)C(C)C` (Fmoc-VVVAAAKKK-NH2)?
A: infectivity enhancement of HIV-1 (in words) [1, 5]: active; degradability by cells (in words) (HeLa cells): cannot be degraded by cells; morphology of peptide assemblies / fibril formation (TEM) [3]: forming fibrils; formation of µm-sized aggregates (in words) [4]: very large

Q: Which “infectivity enhancement of HIV-1 (in words)” value [1, 5] does the source give for `CCCCCCCCCCCCCCCC(=O)N[C@@H](CCCCN)C(=O)NCC(=O)N[C@H](C(=O)N1CCC[C@H]1C(=O)NCC(=O)N[C@H](C(=O)NCC(=O)N[C@@H](CCCCN)C(N)=O)C(C)C)C(C)C` (Palmitoyl-KGVPGVGK-NH2) here?
A: Inactive

Q: And the “morphology of peptide assemblies / fibril formation (TEM)” value [3]?
A: not forming fibrils; also recorded: cannot self‐assemble into fibrils

Q: And the “formation … (in words)” value [4]?
A: not forming µm-sized aggregates and forming too few/less aggregates, respectively

Q: With “C16-disulfide-CVVVAAAKKK-NH2 [PA1 variant with disulfide linker]” as the compound, how does the “reduction of infectivity enhancement relative to the original amide-linked PA” value ([1]; n-fold at 1.3 µM) read?
A: approx. 60%

Q: What about the “formation … (in words)” value [4] of the same compound?
A: not forming visible aggregates

Q: For `CCCCCCCCCCCCCCCC(=O)NCC(=O)NCC(=O)N[C@H](C(=O)N[C@H](C(=O)N[C@@H](CCCNC(=N)N)C(=O)N[C@@H](CCCNC(=N)N)C(N)=O)C(C)C)C(C)C` [C16-GGVVRR-NH2] (Palmitoyl-GGVVRR-NH2), which “infectivity enhancement of HIV-1 (in words)” value [1, 5] is on record?
A: Inactive

Q: And the “formation … (in words)” value [4]?
A: not forming µm-sized aggregates and forming too few/less aggregates, respectively; also recorded: cannot form µm‐sized aggregates
